Common to all, as to details: incubation time: 72 h
One assay has as its system CAL-148. As to the kind of experiment: normalised viability (% of control), CellTiter-Blue; higher = more viable cells (about 100 = DMSO control). On the procedure: (§1)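 DSRT, CellTiter-Blue viability, 72 h incubation. Signal is normalised to DMSO and benzethonium chloride controls. Value is the normalised response at dose 9.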
Background: The colour change of resazurin is a common sign of viable cells or microbes.

Assay [1] has as its system CAL-51. The assay is described as above. On the procedure: as §1
The test system of the next assay is CAL-85-1. Described as above. On the procedure:
as §1

For another assay, the system named is DU-4475. The assay is described as above. Here is the method:
as §1

Assay [2] deals with HDQ-P1. The description is as above. On the procedure:
as §1

The subject of assay [3] is MDA-MB-453. The description is as above. Here is the method:
as §1

The test system of another assay is BT-474. As to the kind of experiment: normalised response (% of control), CellTiter-Glo; higher = more viable cells (100 = DMSO, 0 = benzethonium chloride kill control). Put shortly: (§2)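 Breast cancer cell lines (20 µl suspension) were seeded into 384-well plates holding compound at 5 concentrations in 10-fold steps over a compound-specific 10,000-fold range, then incubated 72 h. CellTox Green fluorescence (485/520 nm) was read first, then CellTiter-Glo luminescence after 10 min at room temperature. Each plate was normalised to 0.1 % DMSO (100) and a positive kill control (0). Each value is the normalised signal at a single concentration of the series.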

In a further assay the test system is BT-549. The assay is described as above. In outline:
as §2

The next assay relates to CAL-120. The description is as above. Put shortly: as §2
The subject of assay [4] is CAL-51. Described as above. Put shortly:
as §2

Another assay relates to HCC1599. The description is as above. Put shortly:
as §2

The test system of assay [5] is HDQ-P1. The description is as above. In outline: as §2
Another assay concerns MCF-10A. Described as above. In outline:
as §2

Another assay relates to MDA-MB-231. The description is as above. Put shortly:
as §2

Assay [6] relates to MDA-MB-453. The description is as above. Put shortly:
as §2

The test system of a further assay is MFM-223. The description is as above. In outline:
as §2

The test system of another assay is SK-BR-3. Described as above. In outline: as §2

For three compounds, normalised viability and normalised response results are on record in the supplement of paper PMC4862054.

As to `Cc1ccc(Nc2nccc(N(C)c3ccc4c(C)n(C)nc4c3)n2)cc1S(N)(=O)=O` [Pazopanib] (10000 nM), the normalised viability with CAL-148 was found to be 79.5%; in the assay with CAL-51 [1], 83.9%; in the assay with CAL-85-1 it was 100%; in the assay on DU-4475, 86.8%; with HDQ-P1 [2] it was 80.7%; in the assay with MDA-MB-453 [3] it was 62.2%. Further, the normalised response in the assay on BT-474 was determined as 91.4%; in the assay on BT-549, 48.1%; in the assay on CAL-120, 89.4%; with CAL-51 [4], 67.5%; in the assay with HCC1599, 94.9%; with HDQ-P1 [5], 98.1%. For the same compound, the normalised response in the assay with MCF-10A was determined as 102%; in the assay on MDA-MB-231, 102%; in the assay with MDA-MB-453 [6] it was 91.8%; with MFM-223, 55.8%; with SK-BR-3, 105%.

Take `O=C(CCBr)N1CCN(C(=O)CCBr)CC1` [Pipobroman] (10000 nM): the normalised viability in the assay on CAL-148 worked out at 84.8%; in the assay with CAL-51 [1], 108%; with CAL-85-1 it was 85.6%; in the assay on DU-4475 it was 112%; in the assay with HDQ-P1 [2], 109%; in the assay with MDA-MB-453 [3], 7.05%. The normalised response came to 94.7% in the assay on BT-474; 101% in the assay with BT-549; 95.8% with CAL-120; 86.5% in the assay with CAL-51 [4]; 99% in the assay with HCC1599; 107% with HDQ-P1 [5]. Moreover, the normalised response in the assay with MCF-10A was determined as 104%; in the assay on MDA-MB-231 it was 101%; in the assay with MDA-MB-453 [6], 110%; with MFM-223, 103%; in the assay with SK-BR-3, 108%.

Take `C[C@]12C=CC(=O)C=C1CC[C@@H]1[C@@H]2[C@@H](O)C[C@@]2(C)[C@H]1CC[C@]2(O)C(=O)CO` [Prednisolone] (10000 nM): the normalised viability with CAL-148 was determined as 99.2%; in the assay with CAL-51 [1], 103%; in the assay on CAL-85-1 it was 109%; with DU-4475, 102%; in the assay with HDQ-P1 [2] it was 120%; in the assay with MDA-MB-453 [3] it was 79.8%. Further, the normalised response was found to be 144% with BT-474; 99% with BT-549; 76.9% in the assay with CAL-120; 88.8% in the assay with CAL-51 [4]; 102% in the assay with HCC1599; 84.7% with HDQ-P1 [5]. The normalised response in the assay with MCF-10A was found to be 96.4%; in the assay on MDA-MB-231, 151%; with MDA-MB-453 [6] it was 94.9%; with MFM-223 it was 101%; in the assay with SK-BR-3, 96.7%.
